Source: patent publication US20250064799A1, “ORAL FORMULATIONS OF LEVOSIMENDAN FOR TREATING PULMONARY HYPERTENSION WITH HEART FAILURE WITH PRESERVED EJECTION FRACTION” (Tenax Therapeutics, Inc., priority 2021, published 2025)
Several values for one entry are separate records, joined by “and”; a condition that tells them apart may be missing. Identical values can stand only once.

Assays:
patients with PH-HFpEF = conditions: in vivo; cited from earlier work
HFpEF patients [1] = conditions: in vivo; cited from earlier work
HFpEF patients [2] = conditions: inhaled 3 times a day for 4 weeks; cited from earlier work
[3] = tested on: HFpEF, HFrEF, or PH-HFpEF patients; conditions: empagliflozin alone; cited from earlier work
PH-HFpEF patients [4] = conditions: in vivo; cited from earlier work
[5] = tested on: patients with left heart disease; conditions: in vivo; cited from earlier work
[6] = tested on: phosphodiesterase-3 (PDE3); conditions: cited from earlier work
[7] = tested on: whole cardiomyocytes and isolated contractile apparatus preparations; conditions: cited from earlier work
PDE4 = conditions: cited from earlier work
[8] = heart failure subjects; cited from earlier work
[9] = OR-1896 plasma concentration, I.V. to oral transition pharmacokinetic study; type: in vivo, human; conditions: individual patients
From the text: FIGS. 6A-6W: Pharmacokinetic Data from the Levosimendan I.V. to Oral Transition Study. […] FIGS. 6D-6U show patient OR-1896 plasma concentrations (ng/ml, y-axis) for each patient in the I.V. to oral transition study. The respective patient number is indicated above each graph. FIG. 6V: Individual Patient Change in 6-minute walk distance (6MWD) at Week 6 (y-axis) by OR-1896 plasma concentration (Week 6) (x-axis). FIG. 6W: Individual Patient Change in Heart Rate (Week 0 to Week 6) (y-axis) by OR-1896 plasma concentration (Week 6) (x-axis).

patients with HFpEF = conditions: long term treatment, 216 patients; cited from earlier work
PH-HFpEF patients [10] = conditions: after 12 weeks, 52 patients; cited from earlier work

SMILES: COc1ccccc1Oc1c(NS(=O)(=O)c2ccc(C(C)(C)C)cc2)nc(-c2ncccn2)nc1OCCO [bosentan]
- clinical outcomes versus placebo (patients with PH-HFpEF): worse clinical outcomes
- six minute walk test or echocardiographic evaluation of pulmonary hypertension (patients with PH-HFpEF): no improvements

SMILES: COC(=O)Nc1c(N)nc(-c2nn(Cc3ccccc3F)c3ncc(F)cc23)nc1N [vericiguat]
- primary endpoints (HFpEF patients [1]): no significant changes

SMILES: O=NO [sodium nitrite]
- peak oxygen consumption during cardiopulmonary exercise (primary endpoint) and secondary endpoints (HFpEF patients [2]): unable to demonstrate any improvement

SMILES: OC[C@H]1O[C@@H](c2ccc(Cl)c(Cc3ccc(O[C@H]4CCOC4)cc3)c2)[C@H](O)[C@@H](O)[C@@H]1O [empagliflozin]
- change in exercise capacity as measured by 6MWD [3]: did not demonstrate a material change

SMILES: COC(=O)N(C)c1c(N)nc(-c2nn(Cc3ccccc3F)c3ncccc23)nc1N [riociguat]
- mean pulmonary arterial pressure (primary outcome) (PH-HFpEF patients [4]): primary outcome was not achieved

SMILES: CCCNS(=O)(=O)Nc1ncnc(OCCOc2ncc(Br)cn2)c1-c1ccc(Br)cc1 [macitentan]
- hemodynamic parameters (pulmonary vascular resistance, mean pulmonary arterial pressure, pulmonary artery wedge pressure) [5]: no change

SMILES: CC(=O)Nc1ccc(C2=NNC(=O)C[C@H]2C)cc1 [OR-1896, (R)—N-(4-(4-methyl-6-oxo-1,4,5,6-tetraihydropyridazin-3-yl)phenyl) acetamide]
- potency in inhibition of PDE3 relative to levosimendan [6]: profoundly less potent
- inotropic effects relative to levosimendan [7]: equipotent
- potency in inhibition of PDE4 relative to levosimendan (PDE4): profoundly less potent
- half-life [8]: 70 to 80 h
- OR-1896 Plasma concentration, Week 6 ([9]; daily 3 mg oral levosimendan): 13.0 ng/mL and 8.44 ng/mL and 4.04 ng/mL and 8.73 ng/mL and 29.0 ng/mL and 8.15 ng/mL and 1.97 ng/mL and 13.4 ng/mL and 34.1 ng/mL and 7.72 ng/mL and 22.9 ng/mL and 16.5 ng/mL and 12.7 ng/mL and 21.9 ng/mL and 12.3 ng/mL and 5.15 ng/mL
- OR-1896 Plasma concentration, Week 4 ([9]; oral levosimendan titration): 8.86 ng/mL and 6.14 ng/mL and 6.28 ng/mL and 1.39 ng/mL and 12.6 ng/mL and 11.6 ng/mL and 32.9 ng/mL and 7.96 ng/mL and 13.1 ng/mL and 6.50 ng/mL and 5.90 ng/mL
- OR-1896 Plasma concentration, Week 8 ([9]; oral levosimendan, patients titrated at Week 6): 3.47 ng/ml and 38.7 ng/ml and 69.9 ng/ml and 2.93 ng/ml and 25.5 ng/ml (2×) and 10.9 ng/ml
- OR-1896 Plasma concentration, Week 0 ([9]; weekly I.V. levosimendan): 4.46 ng/mL and 2.22 ng/mL and 0.730 ng/mL and 0.197 ng/mL and 12.2 ng/mL and 3.16 ng/mL and 0.787 ng/mL and 6.89 ng/mL and 36.1 ng/mL and 2.11 ng/mL and 0.00 ng/mL and 6.32 ng/mL and 2.81 ng/mL and 4.86 ng/mL and 3.77 ng/mL and 1.19 ng/mL

SMILES: CCCc1nn(C)c2c(=O)[nH]c(-c3cc(S(=O)(=O)N4CCN(C)CC4)ccc3OCC)nc12 [sildenafil]
- six-minute walk time, clinical status, or quality of life (patients with HFpEF): failed to improve
- change in mPAP (PH-HFpEF patients [10]): no change
